According to patent US7101681B1, “Nuclear hormone receptor drug screens” (Amgen, Inc., priority 1997, dated 2006):

Columns and labels:
RXR = assay: Fluorescent polarization assay, labeled peptide sensor binding to RXR; conditions: for Sensors Activity: Fluorescent Polarization Assay RXR: graded symbols O, I to IV, key not given
Protocol: (§1) I. High-Throughput In Vitro Fluorescence Polarization Assay
(§2) • Sensor: Rhodamine-labeled L1X1X2L2L3 peptide (final conc.=1–5 nM) • Receptor: Glutathione-S-transferase/nuclear hormone receptor ligand binding domain fusion protein (final conc.=100–200 nM) • Buffer: 10 mM HEPES, 10 mM NaCl, 6 mM magnesium chloride, pH 7.6 Protocol: • 1. Add 90 microliters of peptide/NHR mixture to each well of a 96-well microtiter plate. • 2. Add 10 microliters of test compound per well. • 3. Shake 5 min and within 5 minutes determine amount of fluorescence polarization by using a Fluorolite FPM-2 Fluorescence Polarization Microtiter System (Dynatech Laboratories, Inc). II. Conformational Sensor—ELISA Format Assay Buffer and Solution Preparation: […]

LXR = assay: Fluorescent polarization assay, labeled peptide sensor binding to LXR; conditions: for Sensors Activity: Fluorescent Polarization Assay LXR: graded symbols O, I to IV, key not given
Protocol: as §1, §2

PPARγ = target: T1, PPARγ (Homo sapiens, UniProt P37231); assay: Fluorescent polarization assay, labeled peptide sensor binding to PPARγ; conditions: graded symbols O, I to IV, key not given
T1 sequence (P37231 238-503 limits assumed): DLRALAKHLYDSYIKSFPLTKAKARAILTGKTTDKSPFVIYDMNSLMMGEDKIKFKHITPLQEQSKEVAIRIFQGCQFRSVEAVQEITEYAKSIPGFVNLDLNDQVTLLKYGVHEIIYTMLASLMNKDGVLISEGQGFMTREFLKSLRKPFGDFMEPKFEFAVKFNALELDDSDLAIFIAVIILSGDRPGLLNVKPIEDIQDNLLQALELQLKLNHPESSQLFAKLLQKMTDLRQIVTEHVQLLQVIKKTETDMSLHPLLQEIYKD
Protocol: as §1, §2

| Sensors Activity: Fluorescent Polarization Assay LXR (LXR) | Sensors Activity: Fluorescent Polarization Assay RXR (RXR) | Compound | further results |
| --- | --- | --- | --- |
| II+ |  | TUK-1382: labeled peptide sensor F-G-LLQQLLTE, SRC-1 1434–1441 |  |
|  | II+ | TUK-1373: labeled peptide sensor R-G-ILHRLLQE, SRC-1 689–696 |  |
| II+ |  | TUK-1392: labeled peptide sensor F-G-LLRYLLDK, SRC-1 748–755 |  |
| III+ | II+ | TUK-1393: labeled peptide sensor R-G-LLRYLLDK, SRC-1 748–755 |  |
| II+ | II+ | TUK-1385: labeled peptide sensor R-KLVQLLTTT, SRC-1 632–640 |  |
|  | I+ | TUK-1381: labeled peptide sensor R-LLQQLLTE, SRC-1 1434–1441 | Sensors Activity: Fluorescent Polarization Assay PPARγ (PPARγ): I+ |

Second part, the compound before the results:

| Compound | Sensors Activity: Fluorescent Polarization Assay LXR (LXR) | Sensors Activity: Fluorescent Polarization Assay RXR (RXR) | further results |
| --- | --- | --- | --- |
| 9-cis-retinoic acid [reference compound] |  |  | RXR receptor affinity for labeled peptide sensor (RXR; ligand at 1 μM, dose response, FIG. 3): increases |
| TUK-1390: labeled peptide sensor F-LLRYLLDK (SEQ ID NO:3), SRC-1 748–755 (fluorescent label) |  | II+ |  |
| TUK-1391: labeled peptide sensor R-LLRYLLDK, SRC-1 748–755 |  |  | Sensors Activity: Fluorescent Polarization Assay PPARγ (PPARγ): II+ |
| TUK-1473: labeled peptide sensor R-QLLRYLLDKD (SEQ ID NO:9), SRC-1 747–756 (label R) |  | I+ | Sensors Activity: Fluorescent Polarization Assay PPARγ (PPARγ): I+ |
| CC(C)C(=O)CC[C@@H](C)[C@H]1CC[C@H]2[C@@H]3CC=C4C[C@@H](O)CC[C@]4(C)[C@H]3CC[C@]12C [24-ketocholesterol, reference compound] |  |  | LXR receptor affinity for labeled peptide sensor (LXR; ligand at 2 μM, dose response, FIG. 2): increases |
| TUK-1453: labeled peptide sensor R-LLRYLLD (SEQ ID NO:4), SRC-1 748–754 (R label) |  | I+ |  |
| TUK-1557: labeled peptide sensor R-ILKKLLQE (SEQ ID NO:17), synthetic sequence peptide (label R) | III+ |  |  |
| TUK-1380: labeled peptide sensor F-LLQQLLTE (SEQ ID NO:12), SRC-1 1434–1441 (fluorescent label) | II+ |  |  |
| TUK-1376: labeled peptide sensor F-G-VTLLQLLLG, RIP-140 496–506 | II+ |  |  |
| TUK-1371: labeled peptide sensor R-ILHRLLQE, SRC-1 689–696 |  |  | Sensors Activity: Fluorescent Polarization Assay PPARγ (PPARγ): I+ |
| TUK-1455: labeled peptide sensor R-LRYLLD (SEQ ID NO:5), SRC-1 749–754 (R label) |  |  | Sensors Activity: Fluorescent Polarization Assay PPARγ (PPARγ): I+ |
